This passage reports EC50 results from patent US6399583B1, “Hybrid anthracyclines from genetically engineered streptomyces galilaeus strains, process for production and uses thereof” (Galilaeus Oy, priority 1998, dated 2002).

The subject of assay [1] is MES-SA human uterine sarcoma cells. Description: Cytotoxicity assay, luminescence ATP detection, MES-SA. Format: cell-based. Conditions: three days incubation, ATP content, highest concentration 10^-5 M, read-out: ED50 (nM) MES-SA. The protocol:
(§1) The cytotoxicities of the new anthracyclines were tested in vitro with two cell lines: human uterine sarcomas MES-SA (CRL-1976; American Type Culture Collection (ATCC), Rockville, Md., USA) and MES-SA/D×5 (CRL-1977; ATCC, Rockville, Md., USA). MES-SA/D×5 has been developed by growing MES-SA cells in increasing concentrations of doxorubicin (Harker and Sikic, 1985).
(§2) Monolayer cultures were grown in McCoy's 5A medium with L-glutamine (Gibco BRL) supplemented with 10% FBS (Foetal Bovine Serum, Gibco BRL). No antibiotics were added. As the resistance is stable for at least 20 passages, the MES-SA/D×5 cells were grown without anthracycline selection (Harker and Sikic, 1985). Cells were maintained at 37° C. with 5% CO2 and subcultured every 3-5 days.
(§3) The cytotoxicity tests were performed in 96-well microtiter plates (sterile white plates with clear bottom, Corning Costar Corporation, Cambridge, Mass., USA). The anthracyclines were pipetted into the plates in 10 μl of ethanol, pure ethanol was used for control plates. Daunorubicin and aclarubicin were used as positive controls. When the ethanol had evaporated, the cells were seeded into the plates in 100 μl of appropriate medium. The number of cells seeded per well was 2500 with MES-SA, 3000 with MES-SA/D×5, 3000 with LL/2, 2000 with B16-F0 and B16-F1, 2000 with KLN-205 and 8000 with MLTC-1. The ATP content of the cells was measured after incubating the cells for three days at 37° C. with 5% CO2.
(§4) The growth medium was removed by turning the plates over, and 200 μl of ATP extraction reagent, Somalyze, were added to the wells. The plates were then incubated for 30 minutes at room temperature. The ATP measurement was performed with Luminoskan luminometer (Labsystems Oy, Helsinki, Finland) at 22° C. 20 μl of ATP monitoring reagent containing luciferin and luciferase was dispensed, and an integral measurement of 10 s with 2 s lag time was performed for each well. All reagents used were supplied by Bio-Orbit Oy, Turku, Finland.
(§5) The direct luminometer output (in relative light units, RLUS) was used to calculate the cytotoxic effect. This light signal is directly proportional to the amount of […] in a wide range (determined with Bio-Orbit ATP standard, data not shown). On the other hand, the amount of ATP is directly proportional to the amount of living cells (Kangas et al., 1984). The results are expressed as percentages of the control value of untreated cells. An IC50 value (the drug concentration resulting to an ATP signal of 50% of the untreated control signal) was graphically estimated from the % of control vs. drug concentration plot.

In assay [2] the test system is MES-SA/D×5 uterine sarcoma cells (doxorubicin-resistant, MDR). The assay can be described thus: Cytotoxicity assay, luminescence ATP detection, MES-SA/D×5. The following applies: MES-SA/D×5 cells, three days incubation, ATP content, highest concentration 10^-5 M, read-out: ED50 (nM) MES-SA/D × 5. The format is cell-based, human. The protocol:
as §1, §2, §3, §4, §5

The subject of assay [3] is SK-N-MC. Description: Cytotoxicity assay, ATP detection, SK-N-MC. Format: cell-based. Conditions: SK-N-MC cells in vitro; read-out: ED50 SK-N-MC.

Where two headings read alike, the source gives them in different places.

In the case of `CCC1(O)CC(OC2CC(N(C)C)C(OC3CC(O)C(OC4CC(O)C(O)C(C)O4)C(C)O3)C(C)O2)c2c(O)c3c(c(O)c2C1C(=O)OC)C(=O)c1cccc(O)c1C3=O` (stereo not drawn) [Compound H075-4a], the EC50 in assay [1] is 1 nM; in assay [2], 50 nM; in assay [3], 9 nM.

Take `COc1cccc2c1C(=O)c1c(O)c3c(c(O)c1C2=O)C[C@@](O)(C(C)=O)C[C@@H]3O[C@H]1C[C@H](N)[C@H](O)[C@H](C)O1` [Daunorubicin]: the EC50 in assay [1] (Homo sapiens, 72 h) came out at 8 nM; in assay [2] (Homo sapiens, 72 h), 220 nM; in assay [3], 3 nM.
